Source: PubChem BioAssay AID2060902 (Molecular Pharmacology Branch, DTP, NCI, 2025)

System: 485368-065-R3-J5-PDC spheroids with HUVEC/MSC, viability
Test: Anticancer human tumor 485368-065-R3-J5-PDC patient-derived pancreatic carcinoma cell line growth inhibition [RAS]
Conditions: for IC50: curve of first compound; for viability, T/C: stronger effect = lower value
Procedure, shortened: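 Tumour cells grown as complex spheroids with HUVEC endothelial cells and mesenchymal stem cells, treated with RAS pathway inhibitor combinations. Each agent spans half-log steps from near clinical Cmax, or 10 microM where Cmax is unknown.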

[1] = second compound 0.000949 µM, first compound 0.0316 µM
[2] = second compound 0.000949 µM, first compound 0.1 µM
[3] = second compound 0.000949 µM, first compound 0.316 µM
[4] = second compound 0.000949 µM, first compound 1 µM
[5] = second compound 0.000949 µM, first compound 3.16 µM
[6] = second compound 0.000949 µM, first compound 10 µM
[7] = second compound 0.003 µM, first compound 0.0316 µM
[8] = second compound 0.003 µM, first compound 0.1 µM
[9] = second compound 0.003 µM, first compound 0.316 µM
[10] = second compound 0.003 µM, first compound 1 µM
[11] = second compound 0.003 µM, first compound 3.16 µM
[12] = second compound 0.003 µM, first compound 10 µM
[13] = second compound 0.00949 µM, first compound 0.0316 µM
[14] = second compound 0.00949 µM, first compound 0.1 µM
[15] = second compound 0.00949 µM, first compound 0.316 µM
[16] = second compound 0.00949 µM, first compound 1 µM
[17] = second compound 0.00949 µM, first compound 3.16 µM
[18] = second compound 0.00949 µM, first compound 10 µM
[19] = second compound 0.03 µM, first compound 0.0316 µM
[20] = second compound 0.03 µM, first compound 0.1 µM
[21] = second compound 0.03 µM, first compound 0.316 µM
[22] = second compound 0.03 µM, first compound 1 µM
[23] = second compound 0.03 µM, first compound 3.16 µM
[24] = second compound 0.03 µM, first compound 10 µM
[25] = second compound 0.0949 µM, first compound 0.0316 µM
[26] = second compound 0.0949 µM, first compound 0.1 µM
[27] = second compound 0.0949 µM, first compound 0.316 µM
[28] = second compound 0.0949 µM, first compound 1 µM
[29] = second compound 0.0949 µM, first compound 3.16 µM
[30] = second compound 0.0949 µM, first compound 10 µM
[31] = second compound 0.3 µM, first compound 0.0316 µM
[32] = second compound 0.3 µM, first compound 0.1 µM
[33] = second compound 0.3 µM, first compound 0.316 µM
[34] = second compound 0.3 µM, first compound 1 µM
[35] = second compound 0.3 µM, first compound 3.16 µM
[36] = second compound 0.3 µM, first compound 10 µM
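Further: spheroids exposed to agents for seven days before readout.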

## CC(C)NCC(C(=O)N1CCN(c2ncnc3c2C(C)CC3O)CC1)c1ccc(Cl)cc1 (stereo not drawn) + CCn1c(-c2cc(N3CCN(C)CC3)cnc2C(C)OC)c2c3cc(ccc31)-c1csc(n1)CC(NC(=O)C1CC1C)C(=O)N1CCCC(N1)C(=O)OCC(C)(C)C2
Second compound 0.000949 µM
  IC50: < 31.6 nM
Second compound 0.003 µM
  IC50: < 31.6 nM
Second compound 0.00949 µM
  IC50: < 31.6 nM
Second compound 0.03 µM
  IC50: < 31.6 nM
Second compound 0.0949 µM
  IC50: < 31.6 nM
Second compound 0.3 µM
  IC50: < 31.6 nM
[1]
  viability, T/C: 40.8%
[2]
  viability, T/C: 36.3%
[3]
  viability, T/C: 29.3%
[4]
  viability, T/C: 23.7%
[5]
  viability, T/C: 18.2%
[6]
  viability, T/C: 16.4%
[7]
  viability, T/C: 22.7%
[8]
  viability, T/C: 21.8%
[9]
  viability, T/C: 17.9%
[10]
  viability, T/C: 14.6%
[11]
  viability, T/C: 11.9%
[12]
  viability, T/C: 8.84%
[13]
  viability, T/C: 15.5%
[14]
  viability, T/C: 16.6%
[15]
  viability, T/C: 15.6%
[16]
  viability, T/C: 14%
[17]
  viability, T/C: 10.2%
[18]
  viability, T/C: 7.3%
[19]
  viability, T/C: 11.7%
[20]
  viability, T/C: 13.6%
[21]
  viability, T/C: 12.6%
[22]
  viability, T/C: 10.5%
[23]
  viability, T/C: 7.29%
[24]
  viability, T/C: 6.75%
[25]
  viability, T/C: 10.1%
[26]
  viability, T/C: 9.26%
[27]
  viability, T/C: 7.76%
[28]
  viability, T/C: 7.82%
[29]
  viability, T/C: 7.22%
[30]
  viability, T/C: 6.12%
[31]
  viability, T/C: 8.98%
[32]
  viability, T/C: 7.69%
[33]
  viability, T/C: 8.06%
[34]
  viability, T/C: 7.28%
[35]
  viability, T/C: 6.22%
[36]
  viability, T/C: 5.13%

## CC(C)n1nc(-c2ccc3oc(N)nc3c2)c2c(N)ncnc21 + CCn1c(-c2cc(N3CCN(C)CC3)cnc2C(C)OC)c2c3cc(ccc31)-c1csc(n1)CC(NC(=O)C1CC1C)C(=O)N1CCCC(N1)C(=O)OCC(C)(C)C2
Second compound 0.000949 µM
  IC50: < 0.316 nM
Second compound 0.003 µM
  IC50: < 0.316 nM
Second compound 0.00949 µM
  IC50: < 0.316 nM
Second compound 0.03 µM
  IC50: < 0.316 nM
Second compound 0.0949 µM
  IC50: < 0.316 nM
Second compound 0.3 µM
  IC50: < 0.316 nM
Second compound 0.000949 µM, first compound 0.000316 µM
  viability, T/C: 37.1%
Second compound 0.000949 µM, first compound 0.001 µM
  viability, T/C: 33.2%
Second compound 0.000949 µM, first compound 0.00316 µM
  viability, T/C: 25.4%
Second compound 0.000949 µM, first compound 0.01 µM
  viability, T/C: 25.5%
[1]
  viability, T/C: 16.9%
[2]
  viability, T/C: 14.4%
Second compound 0.003 µM, first compound 0.000316 µM
  viability, T/C: 23.3%
Second compound 0.003 µM, first compound 0.001 µM
  viability, T/C: 20.4%
Second compound 0.003 µM, first compound 0.00316 µM
  viability, T/C: 18.3%
Second compound 0.003 µM, first compound 0.01 µM
  viability, T/C: 15.1%
[7]
  viability, T/C: 11.4%
[8]
  viability, T/C: 8.13%
Second compound 0.00949 µM, first compound 0.000316 µM
  viability, T/C: 19.9%
Second compound 0.00949 µM, first compound 0.001 µM
  viability, T/C: 17.6%
Second compound 0.00949 µM, first compound 0.00316 µM
  viability, T/C: 15.4%
Second compound 0.00949 µM, first compound 0.01 µM
  viability, T/C: 11.2%
[13]
  viability, T/C: 7.74%
[14]
  viability, T/C: 7.71%
Second compound 0.03 µM, first compound 0.000316 µM
  viability, T/C: 13.6%
Second compound 0.03 µM, first compound 0.001 µM
  viability, T/C: 12.3%
Second compound 0.03 µM, first compound 0.00316 µM
  viability, T/C: 11.5%
Second compound 0.03 µM, first compound 0.01 µM
  viability, T/C: 10.1%
[19]
  viability, T/C: 8.37%
[20]
  viability, T/C: 6.86%
Second compound 0.0949 µM, first compound 0.000316 µM
  viability, T/C: 9.34%
Second compound 0.0949 µM, first compound 0.001 µM
  viability, T/C: 9.41%
Second compound 0.0949 µM, first compound 0.00316 µM
  viability, T/C: 9.4%
Second compound 0.0949 µM, first compound 0.01 µM
  viability, T/C: 8.96%
[25]
  viability, T/C: 8.01%
[26]
  viability, T/C: 7.66%
Second compound 0.3 µM, first compound 0.000316 µM
  viability, T/C: 8.85%
Second compound 0.3 µM, first compound 0.001 µM
  viability, T/C: 9.23%
Second compound 0.3 µM, first compound 0.00316 µM
  viability, T/C: 9.13%
Second compound 0.3 µM, first compound 0.01 µM
  viability, T/C: 7.72%
[31]
  viability, T/C: 8.58%
[32]
  viability, T/C: 6.19%

## CC(Nc1ccc2c(c1)OCCn1cc(N3C(=O)OCC3C(F)F)nc1-2)C(N)=O (stereo not drawn) + CCn1c(-c2cc(N3CCN(C)CC3)cnc2C(C)OC)c2c3cc(ccc31)-c1csc(n1)CC(NC(=O)C1CC1C)C(=O)N1CCCC(N1)C(=O)OCC(C)(C)C2
Second compound 0.000949 µM
  IC50: < 31.6 nM
Second compound 0.003 µM
  IC50: < 31.6 nM
Second compound 0.00949 µM
  IC50: < 31.6 nM
Second compound 0.03 µM
  IC50: < 31.6 nM
Second compound 0.0949 µM
  IC50: < 31.6 nM
Second compound 0.3 µM
  IC50: < 31.6 nM
[1]
  viability, T/C: 26.2%
[2]
  viability, T/C: 23.7%
[3]
  viability, T/C: 24.2%
[4]
  viability, T/C: 18.2%
[5]
  viability, T/C: 17.5%
[6]
  viability, T/C: 11.3%
[7]
  viability, T/C: 15%
[8]
  viability, T/C: 13.3%
[9]
  viability, T/C: 12.6%
[10]
  viability, T/C: 11.2%
[11]
  viability, T/C: 10.1%
[12]
  viability, T/C: 7.35%
[13]
  viability, T/C: 10.8%
[14]
  viability, T/C: 11.4%
[15]
  viability, T/C: 9.57%
[16]
  viability, T/C: 9.69%
[17]
  viability, T/C: 9.37%
[18]
  viability, T/C: 6.07%
[19]
  viability, T/C: 10.3%
[20]
  viability, T/C: 9.36%
[21]
  viability, T/C: 8.76%
[22]
  viability, T/C: 8.73%
[23]
  viability, T/C: 7.08%
[24]
  viability, T/C: 4.24%
[25]
  viability, T/C: 7.86%
[26]
  viability, T/C: 6.77%
[27]
  viability, T/C: 7.07%
[28]
  viability, T/C: 5.28%
[29]
  viability, T/C: 4.78%
[30]
  viability, T/C: 2.97%
[31]
  viability, T/C: 6.57%
[32]
  viability, T/C: 6.98%
[33]
  viability, T/C: 5.66%
[34]
  viability, T/C: 4.05%
[35]
  viability, T/C: 4.16%
[36]
  viability, T/C: 2.04%

## C[C@@H](NC(=O)c1ncnc(N)c1Cl)c1ncc(C(=O)Nc2cc(C(F)(F)F)c(Cl)cn2)s1 + CCn1c(-c2cc(N3CCN(C)CC3)cnc2C(C)OC)c2c3cc(ccc31)-c1csc(n1)CC(NC(=O)C1CC1C)C(=O)N1CCCC(N1)C(=O)OCC(C)(C)C2
Second compound 0.000949 µM
  IC50: 31.6 nM
Second compound 0.003 µM
  IC50: < 31.6 nM
Second compound 0.00949 µM
  IC50: < 31.6 nM
Second compound 0.03 µM
  IC50: < 31.6 nM
Second compound 0.0949 µM
  IC50: < 31.6 nM
Second compound 0.3 µM
  IC50: < 31.6 nM
[1]
  viability, T/C: 41.3%
[2]
  viability, T/C: 46.5%
[3]
  viability, T/C: 55%
[4]
  viability, T/C: 51.5%
[5]
  viability, T/C: 45.7%
[6]
  viability, T/C: 38%
[7]
  viability, T/C: 22.9%
[8]
  viability, T/C: 24.4%
[9]
  viability, T/C: 26.9%
[10]
  viability, T/C: 28.8%
[11]
  viability, T/C: 24.8%
[12]
  viability, T/C: 24.8%
[13]
  viability, T/C: 15.6%
[14]
  viability, T/C: 16.8%
[15]
  viability, T/C: 17.4%
[16]
  viability, T/C: 18.4%
[17]
  viability, T/C: 18.9%
[18]
  viability, T/C: 18.6%
[19]
  viability, T/C: 14%
[20]
  viability, T/C: 14.2%
[21]
  viability, T/C: 16.5%
[22]
  viability, T/C: 16.2%
[23]
  viability, T/C: 15.4%
[24]
  viability, T/C: 12.7%
[25]
  viability, T/C: 10%
[26]
  viability, T/C: 11%
[27]
  viability, T/C: 10.4%
[28]
  viability, T/C: 11.8%
[29]
  viability, T/C: 16.1%
[30]
  viability, T/C: 10.8%
[31]
  viability, T/C: 9.44%
[32]
  viability, T/C: 10.4%
[33]
  viability, T/C: 11.2%
[34]
  viability, T/C: 11%
[35]
  viability, T/C: 13.1%
[36]
  viability, T/C: 11.4%
